Assay results taken from patent publication US20090209536A1, “AMINOQUINAZOLINE CANNABINOID RECEPTOR MODULATORS FOR TREATMENT OF DISEASE” (KALYPSYS, INC., priority 2007, published 2009).
Where two headings read alike, the source gives them in different places.

What was measured:
[1] = molecular target: T1, human cannabinoid receptor type 1 (Homo sapiens, UniProt P21554); experiment: Human CB1 Radioligand Binding Assay (basis of selectivity, CB2 vs. CB1); details: CB1: HEK 293 EBNA cells expressing human CB1; CB2: CHO CB2 membranes
T1 construct: purchased Perkin Elmer RBHCB1M; host or cells: HEK 293 EBNA cells
Protocol: 2. Human CB1 Radioligand Binding Assay
The incubation buffer was composed of 50 mM Tris-HCl pH 7.4, 2.5 mM EDTA, 5 mM MgCl2, 5.0 mg/ml fatty acid free BSA and the wash buffer was composed of 50 mM Tris-HCl pH 7.4, 2.5 mM EDTA, 5 mM MgCl2, 0.5 mg/ml fatty acid free BSA.

[2] = molecular target: T2, human cannabinoid receptor type 2 (Homo sapiens, UniProt P34972); experiment: Human CB2 Radioligand Binding Assay; details: membranes from stably transfected CHO CB2 cells
T2 construct: expressed in transfected cells; membrane preparation
Protocol: 1. Human CB2 Radioligand Binding Assay
This receptor binding filtration assay measures the receptor-ligand interactions of compounds by measuring ability to compete with a radiolabeled control ligand. Reactions were performed in 96 deep-well plate (Costar 3961) with a final volume of 600 ul. Compounds were added to each well either in single point (10 uM final) or dose-response. Compounds were delivered in DMSO or further diluted in incubation buffer to a final assay DMSO concentration of 1%. Incubation buffer (50 mM Tris-HCl pH 7.4, 2.5 mM EGTA, 5 mM MgCl2, 5.0 mg/ml fatty acid free BSA) was added to each well. Following buffer addition, [^3H] CP-55,940 was added. Tritiated CP-55,940 (Perkin Elmer) was used at the Kd determined from prior saturation binding experiments conducted on each lot of membranes. Membrane preparations from stably transfected CHO CB2 cells were added and the reaction was incubated for 90 minutes at 30° C. Unifilter GF/C filtration plates (Perkin Elmer) were pre-wet with 0.05% polyethylenimine. Samples were transferred to Unifilter plates and separation of unbound radioligand was achieved using a vacuum manifold (Millipore). Following thorough washing with 5 ml/well ice-cold wash buffer (50 mM Tris-HCl pH 7.4, 2.5 mM EGTA, 5 mM MgCl2, 0.5 mg/ml fatty acid free BSA), filterplates were dried completely. Betaplate Scint Scintillation cocktail (25 ul, Perkin Elmer) was applied and plates were read using Microbeta Trilux (Wallac). Data analysis was performed in Spotfire. Activity of the positive control (100 nM CP-55,940) was set as 100% efficacy.
Stable recombinant Human CB2-CHO cell membranes were prepared as follows: Chinese Hamster Ovarian (CHO) cells stably expressing human cannabinoid receptor type 2 were grown to 90% confluence in 15×100 mm culture dishes under puromycin selection (5 ug/ml) Cells were harvested from culture flasks using a cell scraper, were washed once with cold phosphate-buffered saline (calcium and magnesium free) and pelleted by centrifugation at 400 g for 5 min at 4° C. Cell pellet was washed once with cold phosphate-buffered saline and centrifuged again at 400×g for 5 min at 4° C. The pellet was suspended in ice-cold lysis buffer (10 mM Tris-HCl, 0.1 mM EDTA, containing […], pH 7.5) and homogenized in a chilled 7 ml glass dounce homogenizer using 50 strokes. The homogenate was centrifuged at 400 g for 15 min at 4° C. The cloudy supernatant was collected and centrifuged at 41000 g for 30 min at 4° C. The resulting pellet was washed with ice-cold sucrose-free lysis buffer and centrifuged again at 41000 g for 30 min at 4° C. The membrane pellet was suspended in sucrose-free storage buffer (10 mm Tris-HCl, 0.1 mM EDTA, pH 7.5) to a concentration of 2-3 mg protein/ml. Aliquots were flash frozen in liquid nitrogen and stored at −80° C. Concentration was determined using Dc protein assay kit (Bio-Rad).

[3] = competition with [3H] CP-55,940, read-out: CB2 Ligand Binding Asssay EC50

T1 sequence (P21554 whole entry): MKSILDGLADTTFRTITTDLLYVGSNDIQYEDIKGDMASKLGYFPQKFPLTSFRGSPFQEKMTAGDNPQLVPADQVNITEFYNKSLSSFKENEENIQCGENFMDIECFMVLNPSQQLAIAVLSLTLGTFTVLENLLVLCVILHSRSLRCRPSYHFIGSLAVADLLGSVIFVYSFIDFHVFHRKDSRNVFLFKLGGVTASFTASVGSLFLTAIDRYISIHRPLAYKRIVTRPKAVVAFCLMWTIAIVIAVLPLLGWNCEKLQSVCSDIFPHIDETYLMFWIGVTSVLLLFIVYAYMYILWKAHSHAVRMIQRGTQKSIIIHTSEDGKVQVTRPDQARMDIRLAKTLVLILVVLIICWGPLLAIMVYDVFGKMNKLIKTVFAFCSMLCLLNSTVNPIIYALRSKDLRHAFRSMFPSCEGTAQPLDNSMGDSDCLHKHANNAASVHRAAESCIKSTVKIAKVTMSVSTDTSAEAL
T2 sequence (P34972 whole entry): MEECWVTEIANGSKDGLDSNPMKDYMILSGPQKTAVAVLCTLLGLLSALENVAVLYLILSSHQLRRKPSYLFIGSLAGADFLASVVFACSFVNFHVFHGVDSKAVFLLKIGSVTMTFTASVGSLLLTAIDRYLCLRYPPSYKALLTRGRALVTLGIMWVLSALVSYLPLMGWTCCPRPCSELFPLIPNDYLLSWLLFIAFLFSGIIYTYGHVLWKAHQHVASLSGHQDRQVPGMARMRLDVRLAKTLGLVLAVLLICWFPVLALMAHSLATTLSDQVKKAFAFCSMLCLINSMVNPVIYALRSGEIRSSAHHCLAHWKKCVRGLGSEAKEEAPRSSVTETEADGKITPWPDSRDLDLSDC

Selectivity, CB2 vs. CB1 [1]	EC50 [2, 3]	SMILES	EC50 ([2]; CB2 Ligand Binding Asssay EC50, competition with [3H] CP-55,940)
+ (+ indicates > 10−fold)	< 1 µM	Clc1ccccc1-c1nc(N2CCCCC2)c2ccccc2n1 [Example 54, 2-(2-Chlorophenyl)-4-(piperidin-1-yl)quinazoline]	–
− (− indicates ≦ 10−fold)	< 1 µM	CN(Cc1ccccc1)c1nc(-c2ccccc2Cl)nc2ccccc12 [Example 55, N-Benzyl-2-(2-chlorophenyl)-N-methylquinazolin-4-amine]	–
− (− indicates ≦ 10−fold)	> 1 µM	Clc1ccccc1-c1nc(NCC2CC2)c2ccccc2n1 [Example 56, 2-(2-Chlorophenyl)-N-(cyclopropylmethyl)quinazolin-4-amine]	–
+ (+ indicates > 10−fold)	< 1 µM	CN1CCN(c2nc(-c3ccccc3Cl)nc3ccccc23)CC1 [Example 57, 2-(2-Chlorophenyl)-4-(4-methylpiperazin-1-yl)quinazoline]	–
− (− indicates ≦ 10−fold)	< 1 µM	CC1CCN(c2nc(-c3ccccc3Cl)nc3ccccc23)CC1 [Example 58, 2-(2-Chlorophenyl)-4-(4-methylpiperidin-1-yl)quinazoline]	–
− (− indicates ≦ 10−fold)	< 1 µM	CC1CCCCN1c1nc(-c2ccccc2Cl)nc2ccccc12 (stereo not drawn) [Example 59, 2-(2-Chlorophenyl)-4-(2-methylpiperidin-1-yl)quinazoline]	–
− (− indicates ≦ 10−fold)	< 1 µM	FC(F)(F)C1CCN(c2nc(-c3ccccc3Cl)nc3ccccc23)CC1 [Example 60, 2-(2-Chlorophenyl)-4-(4-(trifluoromethyl)piperidin-1-yl)quinazoline]	–
− (− indicates ≦ 10−fold)	< 1 µM	Clc1ccccc1-c1nc(N2CCc3ccccc3C2)c2ccccc2n1 [Example 61, 2-(2-Chlorophenyl)-4-(3,4-dihydroisoquinolin-2(1H)-yl)quinazoline]	–
+ (+ indicates > 10−fold)	< 1 µM	CCOC(=O)N1CCN(c2nc(-c3ccccc3Cl)nc3ccccc23)CC1 [Example 62, Ethyl 4-(2-(2-Chlorophenyl)quinazolin-4-yl)piperazine-1-carboxylate]	–
− (− indicates ≦ 10−fold)	< 1 µM	CN(c1nc(-c2ccccc2Cl)nc2ccccc12)C1CCCCC1 [Example 63, 2-(2-Chlorophenyl)-N-cyclohexyl-N-methylquinazolin-4-amine]	–
− (− indicates ≦ 10−fold)	< 1 µM	CCCCN(C)c1nc(-c2ccccc2Cl)nc2ccccc12 [Example 64, N-Butyl-2-(2-chlorophenyl)-N-methylquinazolin-4-amine]	–
− (− indicates ≦ 10−fold)	< 1 µM	O=C1CCN(c2nc(-c3ccccc3Cl)nc3ccccc23)CC1 [Example 65, 1-(2-(2-Chlorophenyl)quinazolin-4-yl)piperidin-4-one]	–
− (− indicates ≦ 10−fold)	< 1 µM	OC1(c2ccc(Cl)cc2)CCN(c2nc(-c3ccccc3Cl)nc3ccccc23)CC1 [Example 66, 4-(4-Chlorophenyl)-1-[2-(2-chlorophenyl)quinazolin-4-yl]piperidin-4-ol]	–
− (− indicates ≦ 10−fold)	< 1 µM	Cc1ccc(Cl)cc1N1CCN(c2nc(-c3ccccc3Cl)nc3ccccc23)CC1 [Example 67, 4-[4-(5-Chloro-2-methylphenyl)piperazin-1-yl]-2-(2-chlorophenyl) quinazoline]	–
− (− indicates ≦ 10−fold)	< 1 µM	Clc1ccccc1-c1nc(N2CCSCC2)c2ccccc2n1 [Example 68, 2-(2-Chlorophenyl)-4-thiomorpholin-4-ylquinazoline]	–
− (− indicates ≦ 10−fold)	> 1 µM	CC(C)(C)c1ccc(Nc2nc(-c3ccccc3Cl)nc3ccccc23)cc1 [Example 69, (4-tert-Butylphenyl)-[2-(2-chlorophenyl)quinazolin-4-yl]amine]	–
− (− indicates ≦ 10−fold)	> 1 µM	O=C1CCCN1c1nc(-c2ccccc2Cl)nc2ccccc12 [Example 70, 1-(2-(2-Chlorophenyl)quinazolin-4-yl)pyrrolidin-2-one]	–
− (− indicates ≦ 10−fold)	> 1 µM	O=C1CNCCN1c1nc(-c2ccccc2Cl)nc2ccccc12 [Example 71, 1-(2-(2-Chlorophenyl)quinazolin-4-yl)piperazin-2-one]	–
− (− indicates ≦ 10−fold)	> 1 µM	O=C1CN(c2nc(-c3ccccc3Cl)nc3ccccc23)CCN1 [Example 72, 4-(2-(2-Chlorophenyl)quinazolin-4-yl)piperazin-2-one]	–
− (− indicates ≦ 10−fold)	> 1 µM	CCN1CCN(c2nc(-c3ccccc3Cl)nc3ccccc23)C(=O)C1 [Example 73, 1-(2-(2-Chlorophenyl)quinazolin-4-yl)-4-ethylpiperazin-2-one]	–
− (− indicates ≦ 10−fold)	> 1 µM	CN1CCN(c2nc(-c3ccccc3Cl)nc3ccccc23)C(=O)C1 [Example 74, 1-(2-(2-Chlorophenyl)quinazolin-4-yl)-4-methylpiperazin-2-one]	–
− (− indicates ≦ 10−fold)	> 1 µM	CN1CCN(c2nc(-c3ccccc3Cl)nc3ccccc23)CC1=O [Example 76, 4-(2-(2-Chlorophenyl)quinazolin-4-yl)-1-methylpiperazin-2-one]	–
− (− indicates ≦ 10−fold)	> 1 µM	C[C@@H]1CN(c2nc(-c3ccccc3Cl)nc3ccccc23)C[C@H](C)N1 [Example 77, 2-(2-Chlorophenyl)-4-((3S,5R)-3,5-dimethylpiperazin-1-yl)quinazoline]	–
− (− indicates ≦ 10−fold)	< 1 µM	C[C@@H]1CN(c2nc(-c3ccccc3Cl)nc3ccccc23)C[C@H](C)N1C [Example 78, 2-(2-Chlorophenyl)-4-((3S,5R)-3,4,5-trimethylpiperazin-1-yl)quinazoline]	–
− (− indicates ≦ 10−fold)	< 1 µM	CCCN1[C@H](C)CN(c2nc(-c3ccccc3Cl)nc3ccccc23)C[C@@H]1C [Example 79, 2-(2-Chlorophenyl)-4-((3S,5R)-3,5-dimethyl-4-propylpiperazin-1-yl)quinazoline]	–
− (− indicates ≦ 10−fold)	< 1 µM	CCN1[C@H](C)CN(c2nc(-c3ccccc3Cl)nc3ccccc23)C[C@@H]1C [Example 80, 2-(2-Chlorophenyl)-4-((3S,5R)-4-ethyl-3,5-dimethylpiperazin-1-yl)quinazoline]	–
− (− indicates ≦ 10−fold)	> 1 µM	CN(c1ccc(C(C)(C)C)cc1)c1nc(-c2ccccc2Cl)nc2ccccc12 [Example 81, (4-tert-Butylphenyl)-[2-(2-chlorophenyl)quinazolin-4-yl]methylamine]	–
− (− indicates ≦ 10−fold)	> 1 µM	Clc1ccccc1-c1nc(N2CCNCC2)c2ccccc2n1 [Example 82, 2-(2-Chlorophenyl)-4-piperazin-1-ylquinazoline]	–

SMILES	Selectivity, CB2 vs. CB1 [1]	EC50 [2, 3]	EC50 ([2]; CB2 Ligand Binding Asssay EC50, competition with [3H] CP-55,940)
Clc1ccccc1-c1nc(N2CCCC2)c2ccccc2n1 [Example 53, 2-(2-Chlorophenyl)-4-(pyrrolidin-1-yl)quinazoline]	+ (+ indicates > 10−fold)	> 1 µM	–
CC(C)(C)OC(=O)N1CCN(c2nc(-c3ccccc3Cl)nc3ccccc23)C(=O)C1 [Example 75, tert-Butyl 4-(2-(2-Chlorophenyl)quinazolin-4-yl)-3-oxopiperazine-1-carboxylate]	− (− indicates ≦ 10−fold)	–	> 1 µM
